Assay results from the NIST ThermoML archive (doi:10.1021/je900757k).
Numbers after ± are expanded uncertainties.

Assay: isobaric coefficient of expansion
Settings: Liquid, DSC

## CCCCCCCCCCC [undecane]
278.15 K, 5000 kPa
  isobaric coefficient of expansion: 0.000936 ± 2.3e-05 1/K
278.15 K, 10000 kPa
  isobaric coefficient of expansion: 0.000913 ± 2.2e-05 1/K
278.15 K, 15000 kPa
  isobaric coefficient of expansion: 0.000893 ± 2.2e-05 1/K
278.15 K, 20000 kPa
  isobaric coefficient of expansion: 0.000873 ± 2.1e-05 1/K
278.15 K, 25000 kPa
  isobaric coefficient of expansion: 0.000854 ± 2.1e-05 1/K
278.15 K, 30000 kPa
  isobaric coefficient of expansion: 0.000836 ± 2e-05 1/K
278.15 K, 35000 kPa
  isobaric coefficient of expansion: 0.000819 ± 2e-05 1/K
278.15 K, 40000 kPa
  isobaric coefficient of expansion: 0.000797 ± 2e-05 1/K
278.15 K, 45000 kPa
  isobaric coefficient of expansion: 0.000785 ± 1.9e-05 1/K
278.15 K, 50000 kPa
  isobaric coefficient of expansion: 0.000773 ± 1.9e-05 1/K
278.15 K, 55000 kPa
  isobaric coefficient of expansion: 0.000765 ± 1.9e-05 1/K
288.15 K, 5000 kPa
  isobaric coefficient of expansion: 0.000948 ± 2.3e-05 1/K
288.15 K, 10000 kPa
  isobaric coefficient of expansion: 0.000924 ± 2.3e-05 1/K
288.15 K, 15000 kPa
  isobaric coefficient of expansion: 0.0009 ± 2.2e-05 1/K
288.15 K, 20000 kPa
  isobaric coefficient of expansion: 0.000879 ± 2.2e-05 1/K
288.15 K, 25000 kPa
  isobaric coefficient of expansion: 0.000856 ± 2.1e-05 1/K
288.15 K, 30000 kPa
  isobaric coefficient of expansion: 0.000843 ± 2.1e-05 1/K
288.15 K, 35000 kPa
  isobaric coefficient of expansion: 0.00082 ± 2e-05 1/K
288.15 K, 40000 kPa
  isobaric coefficient of expansion: 0.000801 ± 2e-05 1/K
288.15 K, 45000 kPa
  isobaric coefficient of expansion: 0.000787 ± 1.9e-05 1/K
288.15 K, 50000 kPa
  isobaric coefficient of expansion: 0.000773 ± 1.9e-05 1/K
288.15 K, 55000 kPa
  isobaric coefficient of expansion: 0.000756 ± 1.9e-05 1/K
298.15 K, 5000 kPa
  isobaric coefficient of expansion: 0.000965 ± 2.4e-05 1/K
298.15 K, 10000 kPa
  isobaric coefficient of expansion: 0.000937 ± 2.3e-05 1/K
298.15 K, 15000 kPa
  isobaric coefficient of expansion: 0.000912 ± 2.2e-05 1/K
298.15 K, 20000 kPa
  isobaric coefficient of expansion: 0.00089 ± 2.2e-05 1/K
298.15 K, 25000 kPa
  isobaric coefficient of expansion: 0.000865 ± 2.1e-05 1/K
298.15 K, 30000 kPa
  isobaric coefficient of expansion: 0.000845 ± 2.1e-05 1/K
298.15 K, 35000 kPa
  isobaric coefficient of expansion: 0.000825 ± 2e-05 1/K
298.15 K, 40000 kPa
  isobaric coefficient of expansion: 0.000805 ± 2e-05 1/K
298.15 K, 45000 kPa
  isobaric coefficient of expansion: 0.00079 ± 1.9e-05 1/K
298.15 K, 50000 kPa
  isobaric coefficient of expansion: 0.000773 ± 1.9e-05 1/K
298.15 K, 55000 kPa
  isobaric coefficient of expansion: 0.000759 ± 1.9e-05 1/K
308.15 K, 5000 kPa
  isobaric coefficient of expansion: 0.000979 ± 2.4e-05 1/K
308.15 K, 10000 kPa
  isobaric coefficient of expansion: 0.00095 ± 2.3e-05 1/K
308.15 K, 15000 kPa
  isobaric coefficient of expansion: 0.000921 ± 2.3e-05 1/K
308.15 K, 20000 kPa
  isobaric coefficient of expansion: 0.000897 ± 2.2e-05 1/K
308.15 K, 25000 kPa
  isobaric coefficient of expansion: 0.00087 ± 2.1e-05 1/K
308.15 K, 30000 kPa
  isobaric coefficient of expansion: 0.000848 ± 2.1e-05 1/K
308.15 K, 35000 kPa
  isobaric coefficient of expansion: 0.000828 ± 2e-05 1/K
308.15 K, 40000 kPa
  isobaric coefficient of expansion: 0.000806 ± 2e-05 1/K
308.15 K, 45000 kPa
  isobaric coefficient of expansion: 0.000789 ± 1.9e-05 1/K
308.15 K, 50000 kPa
  isobaric coefficient of expansion: 0.000774 ± 1.9e-05 1/K
308.15 K, 55000 kPa
  isobaric coefficient of expansion: 0.000759 ± 1.9e-05 1/K
318.15 K, 5000 kPa
  isobaric coefficient of expansion: 0.000993 ± 2.4e-05 1/K
318.15 K, 10000 kPa
  isobaric coefficient of expansion: 0.00096 ± 2.4e-05 1/K
318.15 K, 15000 kPa
  isobaric coefficient of expansion: 0.000933 ± 2.3e-05 1/K
318.15 K, 20000 kPa
  isobaric coefficient of expansion: 0.000901 ± 2.2e-05 1/K
318.15 K, 25000 kPa
  isobaric coefficient of expansion: 0.000874 ± 2.1e-05 1/K
318.15 K, 30000 kPa
  isobaric coefficient of expansion: 0.000851 ± 2.1e-05 1/K
318.15 K, 35000 kPa
  isobaric coefficient of expansion: 0.000829 ± 2e-05 1/K
318.15 K, 40000 kPa
  isobaric coefficient of expansion: 0.000808 ± 2e-05 1/K
318.15 K, 45000 kPa
  isobaric coefficient of expansion: 0.000787 ± 1.9e-05 1/K
318.15 K, 50000 kPa
  isobaric coefficient of expansion: 0.000775 ± 1.9e-05 1/K
318.15 K, 55000 kPa
  isobaric coefficient of expansion: 0.000758 ± 1.9e-05 1/K
328.15 K, 5000 kPa
  isobaric coefficient of expansion: 0.00101 ± 2.5e-05 1/K
328.15 K, 10000 kPa
  isobaric coefficient of expansion: 0.000971 ± 2.4e-05 1/K
328.15 K, 15000 kPa
  isobaric coefficient of expansion: 0.00094 ± 2.3e-05 1/K
328.15 K, 20000 kPa
  isobaric coefficient of expansion: 0.000909 ± 2.2e-05 1/K
328.15 K, 25000 kPa
  isobaric coefficient of expansion: 0.000884 ± 2.2e-05 1/K
328.15 K, 30000 kPa
  isobaric coefficient of expansion: 0.000857 ± 2.1e-05 1/K
328.15 K, 35000 kPa
  isobaric coefficient of expansion: 0.000833 ± 2e-05 1/K
328.15 K, 40000 kPa
  isobaric coefficient of expansion: 0.000806 ± 2e-05 1/K
328.15 K, 45000 kPa
  isobaric coefficient of expansion: 0.00079 ± 1.9e-05 1/K
328.15 K, 50000 kPa
  isobaric coefficient of expansion: 0.000775 ± 1.9e-05 1/K
328.15 K, 55000 kPa
  isobaric coefficient of expansion: 0.000759 ± 1.9e-05 1/K
338.15 K, 5000 kPa
  isobaric coefficient of expansion: 0.00102 ± 2.5e-05 1/K
338.15 K, 10000 kPa
  isobaric coefficient of expansion: 0.000983 ± 2.4e-05 1/K
338.15 K, 15000 kPa
  isobaric coefficient of expansion: 0.000946 ± 2.3e-05 1/K
338.15 K, 20000 kPa
  isobaric coefficient of expansion: 0.000915 ± 2.2e-05 1/K
338.15 K, 25000 kPa
  isobaric coefficient of expansion: 0.000888 ± 2.2e-05 1/K
338.15 K, 30000 kPa
  isobaric coefficient of expansion: 0.00086 ± 2.1e-05 1/K
338.15 K, 35000 kPa
  isobaric coefficient of expansion: 0.000834 ± 2e-05 1/K
338.15 K, 40000 kPa
  isobaric coefficient of expansion: 0.00081 ± 2e-05 1/K
338.15 K, 45000 kPa
  isobaric coefficient of expansion: 0.000789 ± 1.9e-05 1/K
338.15 K, 50000 kPa
  isobaric coefficient of expansion: 0.000771 ± 1.9e-05 1/K
338.15 K, 55000 kPa
  isobaric coefficient of expansion: 0.000754 ± 1.8e-05 1/K
348.15 K, 5000 kPa
  isobaric coefficient of expansion: 0.00103 ± 2.5e-05 1/K
348.15 K, 10000 kPa
  isobaric coefficient of expansion: 0.000991 ± 2.4e-05 1/K
348.15 K, 15000 kPa
  isobaric coefficient of expansion: 0.000948 ± 2.3e-05 1/K
348.15 K, 20000 kPa
  isobaric coefficient of expansion: 0.000917 ± 2.2e-05 1/K
348.15 K, 25000 kPa
  isobaric coefficient of expansion: 0.00089 ± 2.2e-05 1/K
348.15 K, 30000 kPa
  isobaric coefficient of expansion: 0.000859 ± 2.1e-05 1/K
348.15 K, 35000 kPa
  isobaric coefficient of expansion: 0.000833 ± 2e-05 1/K
348.15 K, 40000 kPa
  isobaric coefficient of expansion: 0.00081 ± 2e-05 1/K
348.15 K, 45000 kPa
  isobaric coefficient of expansion: 0.000787 ± 1.9e-05 1/K
348.15 K, 50000 kPa
  isobaric coefficient of expansion: 0.000769 ± 1.9e-05 1/K
348.15 K, 55000 kPa
  isobaric coefficient of expansion: 0.000752 ± 1.8e-05 1/K
